Reference: patent US8598368B2, “Stable neutral nitric oxide source” (priority 2007, dated 2013)

Assays:
[1] = Stability of the Diels-Alder adduct and its hydrogenated derivative (observation); format: physicochemical; conditions: white solid precipitated at 0° C., then warmed
Procedure: At 0° C., a white solid, presumed to be 2, precipitated from solution. […] To confirm the identity of 2, hydrogenation produced stable compound 3 as described below.

[2] = Treatment of patient with chronic hypertension; format: in vivo; conditions: intravenous, blood concentration of 10 nanomolar
Excerpt: A person being treated with sodium iodide for hyperthyroidism has chronic hypertension (BP of 165/90). The patient is given 4 intravenously to maintain a blood concentration of 10 nanomolar. Blood pressure reduces to 140/85.
Treatment of patient with chronic hypertension with 6 The patient who has chronic hypertension (BP of 165/90) is given 6 intravenously to maintain a blood concentration of 10 nanomolar. Blood pressure reduces to 140/85.

| Compound | Stability (retro Diels Alder reaction) [1] | further results |
| --- | --- | --- |
| N#CC1(N2OC3C=CC2C3)CCCCC1 (stereo not shown) [Compound 2] | On warming, the solid turned blue, suggesting retro Diels Alder reaction | – |
| N#CC1(N2OC3CCC2C3)CCCCC1 (stereo not shown) [Compound 3, N-(−1-cyanocyclohexyl)bicyclo[2.2.1]3,4,5,6-tetrahydro-1,2-oxazine] | stable | – |
| N#CC1(N2OC3CC2C(Br)C3Br)CCCCC1 (stereo not shown) [Compound 4, N-(1-cyanocyclohexyl)bicyclo[2.2.1]4,5-dibromo-3,6-dihydro-1,2-oxazine] | – | Blood pressure ([2]; person treated with sodium iodide, chronic hypertension (BP of 165/90)): 140/85 |
| N#CC1(N2OC3CC2C(S)C3O)CCCCC1 (stereo not shown) [Compound 6, N-(1-Cyanocyclohexyl)bicyclo[2.2.1]4-thio-5-hydroxy-3,6-dihydro-1,2-oxazine] | – | Blood pressure ([2]; patient with chronic hypertension (BP of 165/90)): 140/85 |
